{
  "source": "patent US12059429B2",
  "about": "“Hornerin: a novel non-VEGF mediated angiogenic protein expressed in both human and mouse angiogenic endothelial cells and human pancreatic cancer cells” (University of Virginia Patent Foundation, priority 2018, dated 2024)",
  "key": {"hornerin": {"test_system": "hornerin", "test": "Immunoblot of hornerin in HUVECs treated with growth factors", "type": "cell-based, human", "details": "24 hours treatment; growth factors at published B-max concentrations, EGF at increasing concentrations", "procedure": "HUVECs were cultured in 10 cm dishes for 24 hours prior to a change to media containing VEGF (at B-max concentration), TCM, or VC. After 24 hours treatment, the cells were washed with DPBST two times and lysed with radioimmunoprecipitation assay (RIPA) buffer (Thermo Scientific). Lysate protein concentrations were measured by the bicinchoninic acid assay (Pierce, Waltham, MA, USA) and equivalent amounts of protein were loaded into precast 4-15% tris-glycine eXtended (TGX) polyacrylamide gels (Bio-Rad, Hercules, CA, USA). The proteins were resolved by electrophoresis and transferred to nitrocellulose membranes using the iBlot system (Invitrogen, Carlsbad, CA, USA). The membranes were then washed in Tris-buffered saline+1% Tween-20 (TBST), blocked for 30 minutes in TBST+2% milk solution, and incubated overnight at 4° C. with primary antibodies anti-hornerin (Abcam, Cambridge, UK, ab78909; (1:1000)) and anti-HSP90 (Cell Signaling Technology, Danvers, MA, USA, 4877; (1:1000)). The following day the membranes were washed and subsequently incubated with the secondary antibodies anti-goat HRP (R&D Systems, Minneapolis, MN, USA, HAF109; 1:5000) and anti-rabbit HRP (GE Healthcare, NA934V; 1:5000) for 45 minutes at RT. […]\nMajor constituents of TCM were determined using a Human Angiogenesis Antibody Array (Affymetrix, Santa Clara, CA, USA) per manufacturer's instructions. […]"}, "L3.6pl tumors": {"test_system": "L3.6pl tumors", "test": "Ki67 and cleaved caspase 3 immunofluorescence in tumor sections", "type": "in vivo, mouse", "details": "day 15 tumor sections", "procedure": "(§1) Vessel parameters were measured using RAVE software (Seaman et al., 2011). For detection of proliferation and apoptosis, the sections were incubated with the primary antibodies anti-Ki67 (Abcam, ab15580; 1:200) or anti-cleaved caspase 3 (Cell Signaling, 9661; 1:200), respectively, overnight at 4° C. followed by incubation with anti-rabbit AF594 (Abcam, 150080; 1:200)."}, "tumor vasculature": {"test_system": "tumor vasculature", "test": "Photoacoustic microscopy of tumor vasculature", "type": "in vivo, mouse", "details": "day 12", "text": "Using an established PAM system (Wang & Hu, 2012; Ning et al., 2015a; Ning et al., 2015b), the tumor vasculature was characterized in vivo. Two laser wavelengths, 532 and 559 nm, were used to simultaneously quantify microvascular diameter, oxygen saturation, and blood flow at the same spatial scale (Ning et al., 2015a). The applied optical energies were 100 and 75 nJ, which are below the maximum permissible exposure energy. Throughout the experiment, mice were maintained under anesthesia with 1.5% vaporized isoflurane and the body temperature was kept at 37° C. All experimental procedures were carried out in conformity with the laboratory animal protocol approved by the Animal Care and Use Committee at the University of Virginia."}, "tumor vessels": {"test_system": "tumor vessels", "test": "Tumor vessel parameters in L3.6pl tumor sections (CD34, ACTA2, RAVE analysis)", "type": "in vivo, mouse", "details": "four-group combination experiment, vs control", "procedure": "Following completion of the treatment schedule, the mice were killed, cardiac perfused, and the tumors were excised and fixed in formalin overnight. The tumors were paraffin embedded and cut into 5 (thin) or 50 μm (thick) sections. Tumor vessel parameters were evaluated in the following number of tumors for each treatment cohort: (Scr siRNA/ctrl., N=10; Hrnr siRNA/ctrl., N=10; Scr siRNA/AV-951, N=4; Hrnr siRNA/AV-951, N=4).\nTumor sections were deparaffinized, rehydrated, heated in antigen retrieval solution (Vector), blocked for 30 minutes in blocking buffer, and incubated with anti-CD34 antibody (Abcam, ab8158, clone MEC14.7; 1:100) in blocking buffer overnight at 4° C. The sections were then incubated with goat anti-rat FITC secondary antibody (Abcam, ab6840; 1:100) in blocking buffer prior to mounting with Prolong Gold Antifade reagent (Invitrogen). Anti-actin, α-smooth muscle Cy3 antibody (Sigma, C6198, clone 1A4; 1:200) was added to the primary antibody solution if assaying for alpha-smooth muscle actin. To compare hornerin expression in vessels and tumor tissue treated with Hrnr siRNA and Scr siRNA, thin paraffin sections were deparaffinized and stained with anti-CD34 and anti-hornerin antibodies described. Images were collected using a Nikon TE 2000-E2 microscope (Nikon Instruments) equipped with a Melles Griot Argon Laser System (Melles Griot, Carlsbad, CA, USA) and a Nikon D-Eclipse C1 confocal attachment and analyzed by Measurement Tool in Image J. To measure the relative hornerin expression in tumor vessels, three vessel segments per image were isolated and their mean intensity and area were measured and recorded. A weighted mean intensity was calculated to correct for differences in selected area. To measure the relative hornerin expression in tumor tissue, the mean intensity from three square sections (75×75 pixel) of tumor tissue per image was measured and recorded.\nas §1"}, "L3.6pl PDAC cells": {"test_system": "L3.6pl PDAC cells", "test": "Subcutaneous L3.6pl PDAC xenograft tumor volume", "type": "in vivo, mouse", "procedure": "A tumor sample size of four was determined by power analysis based on prior tumor xenograft studies. For our 80% power analysis, the difference between means was 200 mm^3, standard deviation was 100 mm^3, and P-value<0.05 (P<0.05). Tumors were measured at least twice weekly until their volume was >1000 mm^3, at which point animals were euthanized. Tumor size data were collected from each tumor, with the exception of one tumor in the combination treatment experiment that was identified with 90% confidence via Grubb's Outlier Test. The following number of mice in each treatment cohort was evaluated for tumor outgrowth: (Scr siRNA/ctrl., N=15; Hrnr siRNA/ctrl., N=14; Scr siRNA/AV-951, N=8; Hrnr siRNA/AV-951, N=8).\nFor tumor implantation, L3.6pl cells were grown under normal culture conditions for 72 hours prior to being trypsinized and enumerated. The cells were suspended in aliquots of 500,000 cells/50 μL Hanks Balanced Salt Solution (HBSS; Corning, Manassas, VA, USA) and 50 μL of Matrigel (BD Biosciences, San Jose, CA, USA) was added to each aliquot of cells prior to implantation. The cell-Matrigel slurry was injected subcutaneously into nu/nu mice on the flanks or orthotopically into the pancreas (Seaman et al., 2011). The injection site for subcutaneous tumors was monitored daily for growth and tumor volume was calculated form caliper measurements using the formula (width^2×length)/2.\nThe VEGFR inhibitor AV-951 (Selleck Chemicals, Houston, TX, USA) was suspended in 0.5% methocel+0.5% Tween-20 in HBSS to increase viscosity and 50 μL of 1.0 mg/kg AV-951 or VC solution was administered once daily by oral gavage (22-gauge gavage needle (Kent Scientific, Torrington, CT, USA) connected to a 1 mL syringe). […] To prepare Hrnr siRNA and Silencer Select Negative Control #1 Scr siRNA (Invitrogen; catalog number 4390844) for injection, 10 μg of hornerin or control siRNA were combined with in vivo-jetPEI transfection reagent (Polyplus, France) in solution with 5% glucose per Polyplus instructions (total volume 50 μL). After a 30 minutes incubation, the siRNA solutions were injected slowly into the center of the tumor. A second independent hornerin knockdown experiment was conducted using a pooled set of three unique mouse Hrnr siRNA duplexes (5′-[…]-3′ (SEQ ID NO: 50); 5 ‘-[…]-3’ (SEQ ID NO: 51); 5 ‘-[…]-3’ (SEQ ID NO: 52)) and Scr siRNA (Origene, Rockville, MD, USA). The reagent preparation and injection protocol were similar to that described above."}, "tumor vascularity": {"test_system": "tumor vascularity", "test": "DCE-MRI and Ktrans measurement of L3.6pl tumors", "type": "in vivo, mouse", "details": "AV-951 1.0 mg/kg once daily oral gavage; AV-951 only vs control; combination vs AV-951", "procedure": "To assess the in vivo function of tumor vascularity, DCE-MRI was performed on a 7.0 T Clinscan small animal imaging system (Bruker, Ettlingen, Germany) using a 30 mm inner-diameter birdcage radiofrequency coil. Mice (N=7) were imaged prior to treating tumors with Hrnr and Scr siRNA and again 6 days after treatment. Mice treated with the VEGFR inhibitor AV-951 (N=5) were image pre-siRNA treatment and 6 days posttreatment. Mice were anesthetized with 1.25% isoflurane anesthesia, which was maintained during imaging. Respiration and ECG were monitored during imaging using an MRI-compatible system (SA Instruments, Stony Brook, NY, USA). An indwelling tail vein catheter was established for administration of the gadolinium contrast agent Gd-DTPA, which is required in DCE imaging. Mice were placed supine in the imaging system, and body temperature was maintained at 36° C.±1° C. using circulating, temperature controlled water. Tumors were localized using a spin-echo imaging sequence, and an imaging plane that transected both tumors was chosen for DCE imaging.\nA dual-Gd-bolus DCE-MRI acquisition strategy (Christian et al., 2004) was employed, which uses a low dose of contrast agent to accurately acquire the undistorted Gd concentration vs. time curve in the blood pool and a higher dose of contrast agent to acquire the Gd concentration vs. time curve in the tumor with high signal-to-noise ratio, since Gd-DTPA is known to have signal saturation effects at high doses in the blood pool (Christian et al., 2004). […]"}},
  "data": [
    {"compound": "bFGF: growth factor found in TCM, added to HUVECs at published B-max concentration", "values": [
      {"measurement": "hornerin expression in HUVECs", "setting": "hornerin", "value": "might stimulate hornerin expression"}
    ]},
    {"compound": "COc1cc2nccc(Oc3ccc(NC(=O)Nc4cc(C)on4)c(Cl)c3)c2cc1OC", "note": "[AV-951, 1-[2-chloro-4-(6,7-dimethoxyquinolin-4-yl)oxyphenyl]-3-(5-methyl-1,2-oxazol-3-yl)urea, reference compound]", "values": [
      {"measurement": "cleaved caspase 3 levels in tumors relative to control", "setting": "L3.6pl tumors", "value": "two-fold increase"},
      {"measurement": "tumor blood hemoglobin levels", "setting": "tumor vasculature", "value": "remained unchanged"},
      {"measurement": "tumor blood oxygen saturation compared to control", "setting": "tumor vasculature", "value": 1.5, "unit": "fold"},
      {"measurement": "number of vessels per field", "setting": "tumor vessels", "value": "fewer vessels were observed"},
      {"measurement": "vessel morphology", "setting": "tumor vessels", "value": "morphologically similar to control vessels"},
      {"measurement": "tumor volume decrease compared to control-treated animals", "setting": "L3.6pl PDAC cells; day 5 post implantation, 1.0 mg/kg AV-951 once daily oral gavage", "value": 2.3, "unit": "fold"},
      {"measurement": "reduction in tumor volume (discussion summary)", "setting": "L3.6pl PDAC cells; monotherapy or combined therapies", "value": "two-fold"},
      {"measurement": "Ktrans values (in words)", "setting": "tumor vascularity", "value": "decrease"}
    ]}
  ]
}
